Test results as given in patent publication US20050208496A1, “Methods of testing for bronchial asthma or chronic obstructive pulmonary disease” (Genox Research, Inc., priority 2002, published 2005).

Key:
mouse pendrin gene = assay: Quantitative PCR of the mouse pendrin gene in the lung of the OVA antigen-exposed bronchial hypersensitivity model; type: in vivo; settings: lung 24 hours after third antigen inhalation
[1] = test system: mouse OVA antigen-exposed bronchial hypersensitivity model; assay: Quantitative PCR (ABI 7700) of selected genes using cDNA of the mouse OVA antigen-exposed bronchial hypersensitivity model; type: in vivo; settings: OVA-administered group
Protocol: Eighty-eight genes, most of which were recognized as genes whose expression levels were altered in human and mouse, were selected from the genes narrowed down in Section 4. A quantitative PCR assay was carried out with ABI 7700 using cDNA from the human goblet cell differentiation model and using cDNA from the mouse OVA antigen-exposed bronchial hypersensitivity model.
The primers and TaqMan probe used in the assay with ABI 7700 were designed based on the information on the sequence of each gene utilizing Primer Express (PE Biosystems). The 5′ and 3′ ends of the TaqMan probe were labeled with FAM (6-carboxy-fluorescein) and TAMRA (6-carboxy-N,N,N′,N′-tetramethylrhodamine), respectively. The nucleotide sequences of oligonucleotides for the forward primer (F), reverse primer (R), and TaqMan probe (TP) for each gene are shown below. […]
Furthermore, similar quantitative analyses for the β-actin gene and the glyceraldehyde-3-phosphate dehydrogenase (GAPDH) gene as internal standards for correction were carried out to correct the difference of cDNA concentration in a sample. The copy number of the gene of interest was determined by correcting based on the determined copy numbers for the genes. […]

[2] = test system: respiratory epithelial cells; assay: Goblet cell differentiation of respiratory epithelial cells upon IL-13 stimulation (PAS and Alcian blue staining); type: cell-based, human
Protocol: After the cell count was determined, cells were plated at the cell density of 10^6 cells/cm^2 on a filter membrane with 0.45-μm pores, being attached to the bottom of a Millicell-HA Culture Plate Insert (Millipore Corp.). At the time of plating, Vitrogen gel (Vitrogen from Celtrix Pharmaceuticals, Inc. was used after gelation) was placed on the filter membrane as a growth-supporting material, and the epithelial cells were placed thereon. The Millicell inserts were placed in a 24-well plate (Falcon) containing a culture medium, which was a 1:1 mixture of Dulbecco's MEM and Ham F12 containing 2% Ultroser G and the antibiotics, penicillin, streptomycin, gentamycin, and amphotericin B. The cells were incubated overnight. Then, cells that had not adhered to the collagen gel were removed, and the remaining cells were cultured while the cell side was in contact with air (air interface) for approximately two weeks (See FIG. 1). The basic procedures of the AI method by which respiratory epithelial cells were cultured were the same as those described in the following reports:
As basically done in the AI method, Vitrogen gel was placed on a filter membrane, and epithelial cells were placed thereon. The IMM method is different from the AI method in the point that the IMM method comprises adding a medium to cover the epithelial cells. […]

pendrin gene = assay: Quantitative PCR (ABI 7700) of the pendrin gene in epithelial cells cultured by the AI or IMM method; type: cell-based, human; settings: respiratory tract epithelial cells
Text: Quantitative PCR assays were further performed with ABI 7700 using two batches of epithelial cells cultured respectively by the AI method and the IMM method described in Example 1 to quantitatively determine the expression level of the pendrin gene selected in Example 5. The primers and TaqMan probe used in the assays with ABI 7700 were designed based on the information on the sequence of the pendrin gene utilizing Primer Express (PE Biosystems). The 5′ and 3′ ends of the TaqMan probe were labeled with FAM (6-carboxy-fluorescein) and TAMRA (6-carboxy-N,N,N′,N′-tetramethylrhodamine), respectively. The sequences of oligonucleotides of the forward primer (F), reverse primer (R), and TaqMan probe (TP) for the pendrin gene are shown below. The GenBank accession number corresponding to the nucleotide sequence of each marker gene is shown in parenthesis after the name.
Total RNA extracted by the aforementioned method was treated with DNase (Nippon Gene). […]
Additionally, to correct the differences of cDNA concentration in the sample, a similar quantitative analysis was performed for β-actin gene and glyceraldehyde-3-phosphate dehydrogenase (GAPDH) gene as internal standards for correction. By correcting based on the number of copies of these genes, the number of copies of the genes of interest was calculated. […]

Row | Substance | mouse pendrin gene expression level in the lung versus physiological saline-inhaled mice (quantitative PCR) (mouse pendrin gene) | expression levels of the respective genes (quantitative PCR, corrected with β-actin) [1] | differentiation into goblet cells (PAS and Alcian blue staining) ([2]; AI method, IL-13 50 ng/mL, after 14 days of incubation) | goblet cell differentiation ([2]; IMM method) | pendrin gene expression level, elevation as a result of IL-13 stimulation (quantitative PCR) (pendrin gene)
1 | ovalbumin [OVA antigen, ovalbumin antigen used for sensitization and inhalation to induce bronchial hypersensitivity in mice] | about 50 times | significant variations | – | – | –
2 | IL-13: human IL-13 (Peprotech, Inc.) added to the medium at 50 ng/mL to stimulate respiratory epithelial cells | – | – | differentiated into goblet cells | not observed | hundred folds or more
